The text below walks through data of patent US20160143913A1, “COMBINATION” (Novartis AG, priority 2009, published 2016).

Assay type in all cases: cell-based
One test relates to MV522. Kind of test: Cell growth inhibition assay (Cell Titer Glo), MV522. The note with it: Homo sapiens, 72 h; MV522 lung; BRAF_V600E; PIK3CA/PTEN WT; single agent, 3 days, mean ± std. The text has this: (§1) Human breast tumor line, MDA-MB-175-VII, human colon tumor lines, Colo-205, DLD-1, HCT-8, HT-29, LS-1034, NCI-H508, RKO, SW1417, SW1463, SW480, SW837 and T84, and human lung tumor lines, A427, A549, Calu 3, Calu 6, HCC827, NCI-H1155, NCI-H1355, NCI-H1792, NCI-H23, NCI-H727, SW1573 and SW900 were from ATCC. Human breast tumor line EFM-19 was from German Collection of Microorganisms and Cell Cultures. Human lung tumor line COR-L23 was from European Collection of Cell Cultures (UK). Human colon tumor line KM12 and human lung tumor line Hop62 were from National Cancer Institute. MV522 was from University of California at San Diego. All lines were cultured in RPMI 1640 medium containing 10% fetal bovine serum (FBS).
(§2) All cells were cultured for a minimum of 72 hours prior to cell plating. […] ATP levels were determined by adding Cell Titer Glo® (Promega) according to the manufacturer's protocol. Briefly, Cell Titer Glo® was added each plate, incubated for 30 minutes then luminescent signal was read on the SpectraMax L plate reader with a 0.5 sec integration time.
(§3) Inhibition of cell growth was estimated after treatment with compound or combination of compounds for three days and comparing the signal to cells treated with vehicle (DMSO). Cell growth was calculated relative to vehicle (DMSO) treated control wells. […]

Another test deals with NCI-H508. The test is described as follows: Cell growth inhibition assay (Cell Titer Glo), NCI-H508. The note with it: Homo sapiens, 72 h; NCI-H508 colon; BRAF_G596R; PIK3CA_E545K; single agent, 3 days, mean ± std.
Description: as §1, §2, §3
A general note: Cellular ATP, detected with luciferase, serves as a proxy for viable cell number.

A further test concerns EFM-19. Kind of test: Cell growth inhibition assay (Cell Titer Glo), EFM-19. Conditions: Homo sapiens, EFM-19, 72 h, EFM-19 breast; KRAS/RAF WT; PIK3CA_H1049L; single agent, 3 days, mean ± std.
Description: as §1, §2, §3

The next test concerns HCT-8. The test is described as follows: Cell growth inhibition assay (Cell Titer Glo), HCT-8. The note with it: Homo sapiens, 72 h; HCT-8 colon; KRAS_G13D; PIK3CA_E545K; single agent, 3 days, mean ± std.
Description: as §1, §2, §3

For the next test, the system named is NCI-H1155. The test is described as follows: Cell growth inhibition assay (Cell Titer Glo), NCI-H1155. Conditions: Homo sapiens, 72 h; NCI-H1155 lung; KRAS_Q61H; PTEN_R233*; single agent, 3 days, mean ± std.
Description: as §1, §2, §3

In a further test the test system is DLD1. The test is described as follows: Cell growth inhibition assay (Cell Titer Glo), DLD1. The note with it: Homo sapiens, DLD-1, 72 h; DLD1 colon; KRAS_G13D; PIK3CA_E545K; single agent, 3 days, mean ± std.
Description: as §1, §2, §3

For orientation: IC50 means the midpoint of a concentration-inhibition curve. `CC(=O)Nc1cccc(-n2c(=O)n(C3CC3)c(=O)c3c(Nc4ccc(I)cc4F)n(C)c(=O)c(C)c32)c1` [Compound A, N-{3-[3-cyclopropyl-5-(2-fluoro-4-iodo-phenylamino)-6,8-dimethyl-2,4,7-trioxo-3,4,6,7-tetrahydro-2H-pyrido[4,3-d]pyrimidin-1-yl]phenyl}acetamide]: the half-maximal inhibitory concentration (IC50) in the test with MV522 is 2 ± 1 nM; in the test on NCI-H508, 23 ± 2 nM; with EFM-19, over 1000 nM; in the test on HCT-8 it was 55 ± 11 nM; in the test with NCI-H1155, over 1000 nM.
Consider `Cn1ncc(Cl)c1-c1cc(C(=O)N[C@H](CN)Cc2cccc(F)c2)sc1Cl` [Compound B, N-{(1S)-2-amino-1-[(3-fluorophenyl)methyl]ethyl}-5-chloro-4-(4-chloro-1-methyl-1H-pyrazol-5-yl)-2-thiophenecarboxamide], for which the IC50 in the test on DLD1 was over 10000 nM.
